The supplement of paper PMC6315032

Columns and labels:
Test in all cases: apparent dissociation constant (pKDapp, Kinobeads competition, Cheng-Prusoff corrected) (-log10 M); higher = tighter binding
[1] = biological target: ABL1 (UniProt P00519); settings: affinity matrix / lysate: Kinobeads, mixed HEK293/K-562/placenta lysate
[2] = biological target: MAP2K3 (UniProt P46734); settings: affinity matrix / lysate: Kinobeads, mixed HEK293/K-562/placenta lysate
[3] = biological target: PIM1 (UniProt P11309); settings: affinity matrix / lysate: Kinobeads, mixed HEK293/K-562/placenta lysate
[4] = biological target: STK38L (UniProt Q9Y2H1); settings: affinity matrix / lysate: Kinobeads, mixed HEK293/K-562/placenta lysate
[5] = biological target: KIT (UniProt P10721); settings: affinity matrix / lysate: Kinobeads, mixed HEK293/K-562/placenta lysate
[6] = biological target: HIPK1 (UniProt Q86Z02); settings: affinity matrix / lysate: Kinobeads, mixed HEK293/K-562/placenta lysate
[7] = biological target: PRKD1 (UniProt Q15139); settings: affinity matrix / lysate: Kinobeads, mixed HEK293/K-562/placenta lysate
[8] = biological target: MAPK7 (UniProt Q13164); settings: affinity matrix / lysate: Kinobeads, mixed HEK293/K-562/placenta lysate
[9] = biological target: STK17A (UniProt Q9UEE5); settings: affinity matrix / lysate: Kinobeads, mixed HEK293/K-562/placenta lysate
[10] = biological target: ILK (UniProt Q13418); settings: affinity matrix / lysate: Kinobeads, mixed HEK293/K-562/placenta lysate
[11] = biological target: MAPK8 (UniProt P45983); settings: affinity matrix / lysate: Kinobeads, mixed HEK293/K-562/placenta lysate
[12] = biological target: PRKD2 (UniProt Q9BZL6); settings: affinity matrix / lysate: Kinobeads, mixed HEK293/K-562/placenta lysate
[13] = biological target: FLT4 (UniProt P35916); settings: affinity matrix / lysate: Kinobeads, mixed HEK293/K-562/placenta lysate
[14] = biological target: PAK4 (UniProt O96013); settings: affinity matrix / lysate: Kinobeads, mixed HEK293/K-562/placenta lysate
[15] = biological target: PRKDC (UniProt P78527); settings: affinity matrix / lysate: Lipid Kinobeads, mixed HeLa/Jurkat/K-562 lysate
[16] = biological target: PDGFRA (UniProt P16234); settings: affinity matrix / lysate: Kinobeads, mixed HEK293/K-562/placenta lysate
[17] = biological target: NLK (UniProt Q9UBE8); settings: affinity matrix / lysate: Kinobeads, mixed HEK293/K-562/placenta lysate
[18] = biological target: PIK3C2A (UniProt O00443); settings: affinity matrix / lysate: Lipid Kinobeads, mixed HeLa/Jurkat/K-562 lysate
[19] = biological target: RPS6KA2 (UniProt Q15349); settings: affinity matrix / lysate: Kinobeads, mixed HEK293/K-562/placenta lysate
[20] = biological target: TNIK (UniProt Q9UKE5); settings: affinity matrix / lysate: Kinobeads, mixed HEK293/K-562/placenta lysate
[21] = biological target: DAPK1 (UniProt P53355); settings: affinity matrix / lysate: Kinobeads, mixed HEK293/K-562/placenta lysate
[22] = biological target: PIM3 (UniProt Q86V86); settings: affinity matrix / lysate: Kinobeads, mixed HEK293/K-562/placenta lysate
[23] = biological target: KDR (UniProt P35968); settings: affinity matrix / lysate: Kinobeads, mixed HEK293/K-562/placenta lysate
[24] = biological target: BRSK1 (UniProt Q8TDC3); settings: affinity matrix / lysate: Kinobeads, mixed HEK293/K-562/placenta lysate
[25] = biological target: MAP3K6 (UniProt O95382); settings: affinity matrix / lysate: Kinobeads, mixed HEK293/K-562/placenta lysate
[26] = biological target: EPHA2 (UniProt P29317); settings: affinity matrix / lysate: Kinobeads, mixed HEK293/K-562/placenta lysate
[27] = biological target: GSK3A (UniProt P49840); settings: affinity matrix / lysate: Kinobeads, mixed HEK293/K-562/placenta lysate
[28] = biological target: CDC42BPG (UniProt Q6DT37); settings: affinity matrix / lysate: Kinobeads, mixed HEK293/K-562/placenta lysate
[29] = biological target: EPHA1 (UniProt P21709); settings: affinity matrix / lysate: Kinobeads, mixed HEK293/K-562/placenta lysate
[30] = biological target: MKNK1 (UniProt Q9BUB5); settings: affinity matrix / lysate: Kinobeads, mixed HEK293/K-562/placenta lysate
[31] = biological target: STK17B (UniProt O94768); settings: affinity matrix / lysate: Kinobeads, mixed HEK293/K-562/placenta lysate
[32] = biological target: KIAA1804 (UniProt Q5TCX8); settings: affinity matrix / lysate: Kinobeads, mixed HEK293/K-562/placenta lysate
[33] = biological target: ERBB4 (UniProt Q15303); settings: affinity matrix / lysate: Kinobeads, mixed HEK293/K-562/placenta lysate

apparent dissociation constant (-log10 M) [1] | apparent dissociation constant (-log10 M) [2] | apparent dissociation constant (-log10 M) [3] | apparent dissociation constant (-log10 M) [4] | apparent dissociation constant (-log10 M) [5] | apparent dissociation constant (-log10 M) [6] | apparent dissociation constant (-log10 M) [7] | apparent dissociation constant (-log10 M) [8] | apparent dissociation constant (-log10 M) [9] | apparent dissociation constant (-log10 M) [10] | apparent dissociation constant (-log10 M) [11] | apparent dissociation constant (-log10 M) [12] | apparent dissociation constant (-log10 M) [13] | apparent dissociation constant (-log10 M) [14] | apparent dissociation constant (-log10 M) [15] | apparent dissociation constant (-log10 M) [16] | apparent dissociation constant (-log10 M) [17] | apparent dissociation constant (-log10 M) [18] | apparent dissociation constant (-log10 M) [19] | apparent dissociation constant (-log10 M) [20] | apparent dissociation constant (-log10 M) [21] | apparent dissociation constant (-log10 M) [22] | apparent dissociation constant (-log10 M) [23] | apparent dissociation constant (-log10 M) [24] | apparent dissociation constant (-log10 M) [25] | apparent dissociation constant (-log10 M) [26] | apparent dissociation constant (-log10 M) [27] | apparent dissociation constant (-log10 M) [28] | apparent dissociation constant (-log10 M) [29] | apparent dissociation constant (-log10 M) [30] | apparent dissociation constant (-log10 M) [31] | apparent dissociation constant (-log10 M) [32] | apparent dissociation constant (-log10 M) [33] | Compound
< 6 | < 6 | < 6 | < 6 | < 6 | < 6 | < 6 | < 6 | < 6 | < 6 | < 6 | < 6 | < 6 | < 6 | < 6 | < 6 | < 6 | < 6 | < 6 | < 6 | < 6 | < 6 | < 6 | < 6 | < 6 | < 6 | < 6 | < 6 | < 6 | < 6 | < 6 | < 6 | < 6 | CCNC(=O)Nc1ccc(-c2nc(N3CCOC[C@@H]3C)c3c(n2)C(C)(C)S(=O)(=O)C3)cc1 [CZ415]
< 6 | < 6 | < 6 | < 6 | < 6 | < 6 | < 6 | < 6 | < 6 | < 6 | < 6 | < 6 | < 6 | < 6 | 6.18 | < 6 | < 6 | < 6 | < 6 | < 6 | < 6 | < 6 | < 6 | < 6 | < 6 | < 6 | < 6 | < 6 | < 6 | < 6 | < 6 | < 6 | < 6 | COc1ccc(-c2ccc3c(N4CCOC[C@@H]4C)nc(N4CCOC[C@@H]4C)nc3n2)cc1CO [AZD8055]
